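1) Cells in 96-well plates. 2) Compound, 48 h, 5 concentrations. 3) Linear interpolation between surrounding doses. 4) Unreached endpoint = highest concentration. GI50 marks 50% less growth. TGI marks complete inhibition of growth.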
What was measured:
Experiment in all cases: growth of human tumour cells (NCI), 48 h
[1] = system: A549 NSCLC
[2] = system: BT-549 breast
[3] = system: EKVX NSCLC
[4] = system: HOP-62 NSCLC
[5] = system: NCI-H522 lung
[6] = system: RPMI-8226 leukemia
[7] = system: SK-MEL-28 melanoma
[8] = system: TK-10 renal
[9] = system: UACC-62 melanoma
[10] = system: UO-31 renal

| SMILES | GI50 [1] [µM] | TGI [1] [µM] | GI50 [2] [µM] | TGI [2] [µM] | GI50 [3] [µM] | TGI [3] [µM] | GI50 [4] [µM] | TGI [4] [µM] | GI50 [5] [µM] | TGI [5] [µM] | GI50 [6] [µM] | TGI [6] [µM] | GI50 [7] [µM] | TGI [7] [µM] | GI50 [8] [µM] | TGI [8] [µM] | GI50 [9] [µM] | TGI [9] [µM] | GI50 [10] [µM] | TGI [10] [µM] |
| --- | --- | --- | --- | --- | --- | --- | --- | --- | --- | --- | --- | --- | --- | --- | --- | --- | --- | --- | --- | --- |
| O=C(c1ccco1)c1nc2cc(C(F)(F)F)ccc2nc1C(F)(F)F | > 100 | > 100 | > 100 | > 100 | > 100 | > 100 | 71 | > 100 | > 100 | > 100 | 49.8 | > 100 | > 100 | > 100 | > 100 | > 100 | > 100 | > 100 | > 100 | > 100 |
| CN1CCC(COc2cnc(-c3cccc(Cn4nc(-c5cccc(C#N)c5)ccc4=O)c3)nc2)CC1 | 3.52 | 14.7 | 4.66 | 15.2 | 9.45 | 40 | 4.24 | 14.2 | 2.27 | 5.06 | 2.64 | 9.21 | 1.82 | 3.52 | 2.65 | 6.15 | 2.07 | 4.54 | 2.26 | 5.79 |
| C=C(C)[C@@H]1CC[C@]2(COCCC#N)CC[C@]3(C)[C@H](CC[C@@H]4[C@@](C)(CCCNCCC#N)[C@H](C(=C)C)CC[C@]43C)[C@@H]12 | 34.4 | > 50 | 24.3 | > 50 | 46.9 | > 50 | 49.7 | > 50 | 8.55 | 23.4 | 10.7 | 31.4 | 9.26 | 18 | 16 | > 50 | 8.81 | 23.1 | 10.7 | > 50 |
| Cc1cccc(-c2[nH]ncc2-c2ccc3ncccc3n2)n1 | 9.27 | > 25 | > 25 | > 25 | > 20.7 | > 25 | 9.59 | > 25 | > 25 | > 25 | > 15.1 | > 25 | 13.3 | > 25 | 13 | > 25 | 13.7 | > 25 | 6.17 | > 25 |
| Cc1ccc(NC(=O)c2ccc(CN3CCN(C)CC3)cc2)cc1Nc1nccc(-c2cccnc2)n1 | 25.9 | 89.3 | 16.6 | 34.9 | 26.6 | 92.1 | 21.9 | 47 | 16.1 | 32.7 | 7.56 | 28.1 | 15.1 | 29.6 | 28.1 | 70.6 | 19.2 | 40.5 | 22.3 | 53.8 |
| NS(=O)(=O)OCC1OC(n2cnc3cncnc32)C(O)C1O (stereo not given) | 0.0246 | 0.115 | 0.0275 | 0.0913 | 0.064 | 0.647 | < 0.01 | 0.0143 | < 0.01 | 0.0232 | 0.0333 | 0.147 | 0.039 | 0.185 | 0.0214 | 0.0713 | 0.0371 | 0.133 | 0.0256 | 0.106 |
| C=CCC(N[C@@H](CO)c1ccccc1)c1cn(Cc2ccccc2Cl)c(=O)n(Cc2ccccc2Cl)c1=O (stereo not given in full) | > 100 | > 100 | 76.2 | > 100 | > 100 | > 100 | > 100 | > 100 | > 100 | > 100 | 55.8 | > 100 | > 100 | > 100 | > 100 | > 100 | 82.2 | > 100 | > 100 | > 100 |
| COc1ccc(C(=O)Nc2ncc(Cc3cccc(Cl)c3)s2)cc1OC | 0.631 | > 100 | 0.883 | > 100 | 0.693 | > 100 | 0.546 | > 100 | 0.921 | > 100 | 0.474 | 8.23 | 0.119 | > 100 | 7.85 | > 100 | 0.0173 | > 100 | 0.953 | > 100 |
| Nc1ccccc1NC(=O)c1ccc(CNc2nccc(-c3cccnc3)n2)cc1 | 1.35 | > 47.6 | 1.9 | 14.8 | 1.36 | > 59.1 | 1.34 | > 51.8 | 0.337 | 1.76 | 0.5 | 14.6 | 0.691 | 3.15 | 0.304 | > 27.2 | 0.476 | 2.17 | 0.978 | > 77.2 |
| CCOC(=O)c1ccccc1OC(=O)NNc1ccccc1 | 0.874 | > 100 | 3.56 | > 100 | 6.07 | > 100 | > 84.2 | > 100 | 1.67 | > 100 | 1.11 | > 100 | > 59.6 | > 100 | 7.05 | > 100 | 0.269 | > 28.2 | 0.535 | > 100 |
| COc1ccc(/C=C(/C(=O)N2CCN(c3ccccc3)CC2)c2cc(OC)c(OC)c(OC)c2)cc1N | 0.68 | > 100 | 0.53 | > 100 | 0.561 | > 100 | 0.429 | > 100 | 0.242 | 0.91 | 0.327 | 12 | 1.47 | > 100 | 72.1 | > 100 | 0.272 | > 100 | 0.812 | > 100 |
| C[C@]12CC[C@@H]3c4cc(OC(F)F)c(O)cc4CC[C@H]3[C@@H]1CC[C@@H]2OS(N)(=O)=O | 0.968 | > 100 | 2.8 | 45.3 | 1.51 | > 100 | 0.693 | 35.7 | 0.324 | 18.4 | 0.568 | 46.9 | 10.5 | 78.2 | 14.6 | > 92.5 | 0.403 | 18.2 | 1.11 | 37.6 |
| CCC(CC)c1nc(Nc2ccc(C(=O)OC)cc2)c2ccccc2n1 | 10.2 | 27.2 | 31.7 | > 50 | 15.9 | > 29.4 | 10.4 | 21.6 | 8.65 | 18.4 | 5.08 | 22.9 | 7.1 | 15.3 | 13.2 | 25.7 | 9.13 | 18.6 | 7.94 | 15.4 |
| NC1=CC(=O)c2cccnc2C1=O | 3.84 | 15 | 1.58 | 2.98 | 1.58 | 3.31 | 1.32 | 2.77 | 0.533 | 2.17 | 1.81 | 4.58 | 1.7 | 3.21 | 15.6 | 29.2 | 1.47 | 2.87 | 1.17 | 2.5 |
| CCOC(=O)[C@@H](C)C[C@H](Cc1ccccc1)NC(=O)c1nc([C@@H](C[C@H](C(C)C)N(C)C(=O)[C@@H](NC(=O)[C@H]2CCCCN2C)C(C)C)OC(C)=O)sc1CCOCc1ccccc1 | 0.101 | 2.17 | 0.0792 | 0.918 | 0.314 | > 11.1 | 0.226 | 2.91 | 0.029 | 0.319 | 0.107 | 2.53 | 0.54 | 2.72 | 0.631 | 5.28 | 0.0372 | 1.69 | 0.586 | 2.24 |
| COC(=O)[C@@H](C)C[C@H](Cc1cn(C)c2ccccc12)NC(=O)c1csc([C@@H](C[C@H](C(C)C)N(C)C(=O)[C@@H](NC(=O)[C@H]2CCCCN2C)C(C)C)OC(C)=O)n1 | 0.0338 | > 16.7 | < 0.0113 | 0.49 | 0.044 | > 16.7 | 0.0133 | > 16.7 | 0.00303 | 0.0108 | 0.00776 | > 16.7 | > 4.36 | > 16.7 | 2.77 | > 16.7 | 0.00745 | > 16.7 | 0.169 | > 16.7 |
| CCN(CC)CCNc1ccc(C)c2sc3cc(Cl)ccc3c(=O)c12 | 1.76 | 3.28 | 2.36 | 6.95 | 1.47 | 3.1 | 1.44 | 2.9 | 2.04 | 3.77 | 1.79 | 3.86 | 1.91 | 3.52 | 2.2 | 3.77 | 1.87 | 3.54 | 1.32 | 2.69 |
| CC1(C)N=C(N)N=C(N)N1c1ccc(CCCCc2ccccc2)c(Cl)c1 | < 0.01 | 15 | 0.161 | 5.19 | 0.294 | 25.1 | 0.0672 | 5.46 | 0.05 | 1.83 | 0.127 | 11.6 | 0.53 | 13.4 | 0.0721 | 17.5 | 0.0505 | 2.67 | 4.89 | 25.6 |
| O=c1cc(-c2ccccc2)oc2ccc(OC/C(=N/O)c3ccccc3)cc12 | 3 | > 50 | 1.46 | 9.01 | 3.82 | > 50 | 9.62 | > 50 | 2.88 | > 50 | 1.83 | > 50 | 8.38 | > 50 | > 50 | > 50 | 2.48 | > 50 | 4.34 | > 50 |
| N#Cc1c(NC(=O)NCc2ccccc2)sc2c1CCCC2 | 0.731 | > 100 | 1.25 | > 100 | 2 | > 100 | 1.51 | > 74.8 | 0.559 | > 100 | 0.538 | > 100 | 6.37 | > 100 | 14.6 | > 100 | 0.455 | > 100 | 0.74 | > 100 |
| COc1cccc(CCC2CCCN(c3cc(C)nc(N)n3)C2)c1 (stereo not given) | 0.722 | 15.2 | 0.69 | 13.5 | 0.558 | 27.7 | 0.434 | 6.43 | 0.289 | 3.16 | 0.348 | 3.13 | 1.12 | 16 | 0.794 | 14.8 | 0.426 | 5.49 | 0.576 | 11.9 |
| COc1cc2nccc(Oc3ccc(NC(=O)NC4CC4)c(Cl)c3)c2cc1C(N)=O | 29.9 | > 100 | 5.17 | 27.2 | 26.1 | > 100 | 21.4 | 61.5 | 5.74 | 28.2 | 22.4 | > 100 | 41.3 | > 100 | 14.5 | > 78.5 | 19.1 | > 89.2 | 5.55 | > 100 |
| COc1c(O)c(OC)c2oc(-c3ccc(O)c(O)c3)c(OC)c(=O)c2c1O | – | > 100 | – | > 100 | – | 94 | – | 43.7 | – | 33.4 | – | > 100 | – | > 100 | – | 99.5 | – | 47.8 | – | 89.8 |
| COc1ccc(N=Cc2c(O)ccc3c2oc2cc(Cl)c(O)c(Cl)c23)cc1 | 14.5 | 48.2 | 13.4 | > 100 | 10.7 | 38 | 14.3 | 33.5 | 9.61 | 28.2 | 4.83 | 30.2 | 15.9 | 40.4 | 20.3 | 48.3 | 10.3 | 33.7 | 5 | 26.6 |
| O=C(O)/C=C/C(=O)N1Cc2cc3ccccc3nc2C1 | – | > 100 | – | > 100 | – | > 100 | – | > 100 | – | > 100 | – | > 100 | – | > 100 | – | > 100 | – | > 100 | – | > 100 |
